According to patent publication US20170226081A1, “GLUCOSE TRANSPORT INHIBITORS” (Bayer Pharma Aktiengesellschaft, priority 2014, published 2017):

Target: T1, GLUT1 (Homo sapiens, UniProt P11166)
T1 construct: endogenous in cells
T1 sequence (P11166 1-492): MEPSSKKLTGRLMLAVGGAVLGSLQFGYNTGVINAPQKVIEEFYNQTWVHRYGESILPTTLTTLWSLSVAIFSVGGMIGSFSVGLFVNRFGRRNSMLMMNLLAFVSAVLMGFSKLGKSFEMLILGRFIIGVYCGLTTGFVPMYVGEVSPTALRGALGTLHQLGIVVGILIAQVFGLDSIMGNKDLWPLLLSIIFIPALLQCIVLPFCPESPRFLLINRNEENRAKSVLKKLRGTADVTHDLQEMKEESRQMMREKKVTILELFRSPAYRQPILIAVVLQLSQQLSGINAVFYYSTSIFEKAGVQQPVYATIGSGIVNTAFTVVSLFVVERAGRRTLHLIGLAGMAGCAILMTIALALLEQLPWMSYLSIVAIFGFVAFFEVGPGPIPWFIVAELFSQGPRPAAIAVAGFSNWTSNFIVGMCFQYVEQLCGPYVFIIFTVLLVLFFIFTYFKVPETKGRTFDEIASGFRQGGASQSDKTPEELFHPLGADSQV
Assay: Indirect measurement of GLUT activity by quantification of intracellular ATP levels (glucose induced ATP increase)
Assay type: cell-based
Conditions: DLD1 cells; 1 mM glucose, 1 uM Rotenone, 15 min; standardized to cytochalasin B IC50 values; read-out: IC50 regarding glucose induced ATP increase (GLUT1 inhibition)
Excerpt: It is well known that a combination of small-molecule inhibitors of mitochondrial electron transport chain and glucose catabolism synergistically suppress ATP production and impair cellular viability (Ulanovskaya et al., 2008, 2011; Liu, et al. 2001). We therefore used DLD1 or CHO-K1 cells in combination with an oxidative phosphorylation inhibitor to identify GLUT inhibitors. Cell lines were maintained in DMEM medium supplemented with 10% FCS and 1% Penicillin-Streptomycin solution and 2% Glutamax. The cells were treated with trypsin and seeded into 384 plates at a density of 4000 cells/well. The cells were then cultured overnight in glucose free media containing 1% FCS to reduce intracellular ATP levels. After 24 h the cells were incubated at 37° C. containing the appropriate glucose or in case of GLUT2 fructose concentration (1 mM and 30 mM respectively) with or without compounds and 1 uM Rotenone for 15 min. The CellTiter-Glo® Luminescent Cell Viability Assay from Promega was then used to measure ATP levels. Compounds able to reduce the ATP Levels within 15 min of glucose application were considered to be glucose uptake inhibitors.

Row | IC50 [nM] | SMILES
1 | 20 | N#Cc1ccc(Cn2cc(NC(=O)c3cc(C(N)=O)nc4ccccc34)c(C(F)(F)F)n2)cc1 [Example 39, N^4-[1-(4-cyanobenzyl)-3-(trifluoromethyl)-1H-pyrazol-4-yl]quinoline-2,4-dicarboxamide]
2 | 422 | NC(=O)c1cc(C(=O)Nc2cn(Cc3ccncc3)nc2C(F)(F)F)c2ccccc2n1 [Example 41, N^4-[1-(pyridin-4-ylmethyl)-3-(trifluoromethyl)-1H-pyrazol-4-yl]quinoline-2,4-dicarboxamide]
3 | 61 | CS(=O)(=O)c1ccc(Cn2cc(NC(=O)c3cc(C(N)=O)nc4ccccc34)c(C(F)(F)F)n2)cc1 [Example 42, N^4-{1-[4-(methylsulfonyl)benzyl]-3-(trifluoromethyl)-1H-pyrazol-4-yl}quinoline-2,4-dicarboxamide]
4 | 4.1 | COc1ccc(Cn2cc(NC(=O)c3cc(C(N)=O)nc4ccccc34)c(C(F)(F)F)n2)cc1 [Example 49, N^4-[1-(4-methoxybenzyl)-3-(trifluoromethyl)-1H-pyrazol-4-yl]quinoline-2,4-dicarboxamide]
5 | 3.9 | COc1ccc(Cn2cc(NC(=O)c3cc(C(N)=O)nc4cc(F)ccc34)c(C(F)(F)F)n2)cc1 [Example 50, 7-fluoro-N^4-[1-(4-methoxybenzyl)-3-(trifluoromethyl)-1H-pyrazol-4-yl]quinoline-2,4-dicarboxamide]
6 | 5.2 | Cc1nn(Cc2ccc(C#N)cc2)cc1NC(=O)c1cc(C2CC2)nc2ccc(Br)cc12 [Example 51, 6-bromo-N-[1-(4-cyanobenzyl)-3-methyl-1H-pyrazol-4-yl]-2-cyclopropylquinoline-4-carboxamide]
7 | 3.1 | Cc1nn(Cc2ccc(C#N)cc2)cc1NC(=O)c1cc(C(N)=O)nc2cc(F)ccc12 [Example 52, N^4-[1-(4-cyanobenzyl)-3-methyl-1H-pyrazol-4-yl]-7-fluoroquinoline-2,4-dicarboxamide]
8 | 4 | Cc1nn(Cc2ccc(C#N)cc2)cc1NC(=O)c1cc(C(N)=O)nc2cc(F)c(Cl)cc12 [Example 53, 6-chloro-N^4-[1-(4-cyanobenzyl)-3-methyl-1H-pyrazol-4-yl]-7-fluoroquinoline-2,4-dicarboxamide]
9 | 13 | Cc1ccc(Cn2cc(NC(=O)c3cc(C(N)=O)nc4ccccc34)c(C)n2)cc1 [Example 54, N^4-[3-methyl-1-(4-methylbenzyl)-1H-pyrazol-4-yl]quinoline-2,4-dicarboxamide]
10 | 83 | Cc1nn(Cc2ccc(F)c(F)c2)cc1NC(=O)c1cc(C(N)=O)nc2ccccc12 [Example 55, N^4-[1-(3,4-difluorobenzyl)-3-methyl-1H-pyrazol-4-yl]quinoline-2,4-dicarboxamide]
11 | 193 | Cc1nn(Cc2cccc(F)c2)cc1NC(=O)c1cc(C(N)=O)nc2ccccc12 [Example 56, N^4-[1-(3-fluorobenzyl)-3-methyl-1H-pyrazol-4-yl]quinoline-2,4-dicarboxamide]
12 | 556 | Cc1nn(CC2CCCCC2)cc1NC(=O)c1cc(C(N)=O)nc2ccccc12 [Example 57, N^4-[1-(cyclohexylmethyl)-3-methyl-1H-pyrazol-4-yl]quinoline-2,4-dicarboxamide]
13 | 702 | Cc1nn(Cc2ccncc2)cc1NC(=O)c1cc(C(N)=O)nc2ccccc12 [Example 58, N^4-[3-methyl-1-(pyridin-4-ylmethyl)-1H-pyrazol-4-yl]quinoline-2,4-dicarboxamide]
14 | 34 | CCc1nn(Cc2ccc(C#N)cc2)cc1NC(=O)c1cc(C(N)=O)nc2cc(F)ccc12 [Example 59, N^4-[1-(4-cyanobenzyl)-3-ethyl-1H-pyrazol-4-yl]-7-fluoroquinoline-2,4-dicarboxamide]

Further lines, the compound ahead of its results:

Row | SMILES | IC50 [nM]
15 | N#Cc1ccc(Cn2cc(NC(=O)c3cc(C(F)(F)F)nc4ccc(Br)cc34)c(C(N)=O)n2)cc1 [Example 28, 6-bromo-N-[3-carbamoyl-1-(4-cyanobenzyl)-1H-pyrazol-4-yl]-2-(trifluoromethyl)quinoline-4-carboxamide] | 544
16 | CN(C)C(=O)c1nn(Cc2ccc(C#N)cc2)cc1NC(=O)c1cc(C(F)(F)F)nc2ccc(Br)cc12 [Example 29, 6-bromo-N-[1-(4-cyanobenzyl)-3-(dimethylcarbamoyl)-1H-pyrazol-4-yl]-2-(trifluoromethyl)quinoline-4-carboxamide] | 1700
17 | COCCNC(=O)c1nn(Cc2ccc(C#N)cc2)cc1NC(=O)c1cc(C(F)(F)F)nc2ccc(Br)cc12 [Example 30, 6-bromo-N-{1-(4-cyanobenzyl)-3-[(2-methoxyethyl)carbamoyl]-1H-pyrazol-4-yl}-2-(trifluoromethyl)quinoline-4-carboxamide] | 7490
18 | O=C(Nc1cn(Cc2ccc(F)cc2)nc1C(F)(F)F)c1cc(C(F)(F)F)nc2ccc(Br)cc12 [Example 31, 6-bromo-N-[1-(4-fluorobenzyl)-3-(trifluoromethyl)-1H-pyrazol-4-yl]-2-(trifluoromethyl)quinoline-4-carboxamide] | 1180
19 | O=C(Nc1cn(Cc2ccc(F)cc2)nc1C(F)(F)F)c1cc(C(F)(F)F)nc2c(Cl)cc(Cl)cc12 [Example 32, 6,8-dichloro-N-[1-(4-fluorobenzyl)-3-(trifluoromethyl)-1H-pyrazol-4-yl]-2-(trifluoromethyl)quinoline-4-carboxamide] | 763
20 | Cc1ccc2nc(C)cc(C(=O)Nc3cn(Cc4ccc(F)cc4)nc3C(F)(F)F)c2c1 [Example 33, N-[1-(4-fluorobenzyl)-3-(trifluoromethyl)-1H-pyrazol-4-yl]-2,6-dimethylquinoline-4-carboxamide] | 183
21 | O=C(Nc1cn(Cc2ccc(F)cc2)nc1C(F)(F)F)c1cc(C(F)(F)F)nc2cc(F)c(F)cc12 [Example 34, 6,7-difluoro-N-[1-(4-fluorobenzyl)-3-(trifluoromethyl)-1H-pyrazol-4-yl]-2-(trifluoromethyl)quinoline-4-carboxamide] | 2040
22 | N#Cc1ccc(Cn2cc(NC(=O)c3cc(C(N)=O)nc4cc(F)c(Cl)cc34)c(C(F)(F)F)n2)cc1 [Example 35, 6-chloro-N^4-[1-(4-cyanobenzyl)-3-(trifluoromethyl)-1H-pyrazol-4-yl]-7-fluoroquinoline-2,4-dicarboxamide] | 4.4
23 | N#Cc1ccc(Cn2cc(NC(=O)c3cc(C(F)(F)F)nc4ccc(Br)cc34)c(C(F)(F)F)n2)cc1 [Example 36, 6-bromo-N-[1-(4-cyanobenzyl)-3-(trifluoromethyl)-1H-pyrazol-4-yl]-2-(trifluoromethyl)quinoline-4-carboxamide] | 84
24 | COc1cc(C(=O)Nc2cn(Cc3ccc(C#N)cc3)nc2C(F)(F)F)c2ccccc2n1 [Example 37, N-[1-(4-cyanobenzyl)-3-(trifluoromethyl)-1H-pyrazol-4-yl]-2-methoxyquinoline-4-carboxamide] | 179
25 | CS(=O)(=O)c1ccc(Cn2cc(NC(=O)c3cc(C(F)(F)F)nc4ccc(Br)cc34)c(C(F)(F)F)n2)cc1 [Example 43, 6-bromo-N-{1-[4-(methylsulfonyl)benzyl]-3-(trifluoromethyl)-1H-pyrazol-4-yl}-2-(trifluoromethyl)quinoline-4-carboxamide] | 440
26 | CS(=O)(=O)c1ccc(Cn2cc(NC(=O)c3cc(C(N)=O)nc4cc(F)c(Cl)cc34)c(C(F)(F)F)n2)cc1 [Example 44, 6-chloro-7-fluoro-N^4-{1-[4-(methylsulfonyl)benzyl]-3-(trifluoromethyl)-1H-pyrazol-4-yl}quinoline-2,4-dicarboxamide] | 11
27 | CS(=O)(=O)c1ccc(Cn2cc(NC(=O)c3cc(C(N)=O)nc4cc(F)ccc34)c(C(F)(F)F)n2)cc1 [Example 45, 7-fluoro-N^4-{1-[4-(methylsulfonyl)benzyl]-3-(trifluoromethyl)-1H-pyrazol-4-yl}quinoline-2,4-dicarboxamide] | 126
28 | COc1ccc(Cn2cc(NC(=O)c3cc(C(N)=O)nc4cc(F)c(Cl)cc34)c(C(F)(F)F)n2)cc1 [Example 46, 6-chloro-7-fluoro-N^4-[1-(4-methoxybenzyl)-3-(trifluoromethyl)-1H-pyrazol-4-yl]quinoline-2,4-dicarboxamide] | 4.7
29 | COc1ccc(Cn2cc(NC(=O)c3cc(C(F)(F)F)nc4ccc(Br)cc34)c(C(F)(F)F)n2)cc1 [Example 47, 6-bromo-N-[1-(4-methoxybenzyl)-3-(trifluoromethyl)-1H-pyrazol-4-yl]-2-(trifluoromethyl)quinoline-4-carboxamide] | 138
30 | COc1ccc(Cn2cc(NC(=O)c3cc(OC)nc4ccccc34)c(C(F)(F)F)n2)cc1 [Example 48, 2-methoxy-N-[1-(4-methoxybenzyl)-3-(trifluoromethyl)-1H-pyrazol-4-yl]quinoline-4-carboxamide] | 193
